How the values were obtained:
[1] = target: T1, Solute carrier family 22 member 1 (Homo sapiens, UniProt O15245); assay: Inhibition of human OCT1-mediated ASP+ uptake expressed in HEK293 cells after 3 mins by fluorescence assay; format: cell-based
T1 sequence (O15245 whole entry): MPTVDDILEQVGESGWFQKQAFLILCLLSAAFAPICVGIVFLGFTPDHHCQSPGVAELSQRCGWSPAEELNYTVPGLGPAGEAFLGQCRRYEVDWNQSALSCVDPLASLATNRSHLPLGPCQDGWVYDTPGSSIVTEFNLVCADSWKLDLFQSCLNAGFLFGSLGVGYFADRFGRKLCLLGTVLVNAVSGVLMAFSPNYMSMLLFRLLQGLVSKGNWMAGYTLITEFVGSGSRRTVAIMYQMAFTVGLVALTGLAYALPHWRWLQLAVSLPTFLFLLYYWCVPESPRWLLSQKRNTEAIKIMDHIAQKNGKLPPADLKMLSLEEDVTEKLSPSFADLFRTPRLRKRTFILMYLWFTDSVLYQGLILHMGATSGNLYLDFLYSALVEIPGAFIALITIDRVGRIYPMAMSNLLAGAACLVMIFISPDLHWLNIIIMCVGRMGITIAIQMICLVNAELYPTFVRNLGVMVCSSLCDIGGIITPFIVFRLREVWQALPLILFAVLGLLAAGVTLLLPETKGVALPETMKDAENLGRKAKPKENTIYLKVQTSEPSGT

[2] = target: T2, Solute carrier family 22 member 2 (Homo sapiens, UniProt O15244); assay: Inhibition of human OCT2-mediated ASP+ uptake expressed in HEK293 cells after 3 mins by fluorescence assay; format: cell-based
T2 sequence (O15244 whole entry): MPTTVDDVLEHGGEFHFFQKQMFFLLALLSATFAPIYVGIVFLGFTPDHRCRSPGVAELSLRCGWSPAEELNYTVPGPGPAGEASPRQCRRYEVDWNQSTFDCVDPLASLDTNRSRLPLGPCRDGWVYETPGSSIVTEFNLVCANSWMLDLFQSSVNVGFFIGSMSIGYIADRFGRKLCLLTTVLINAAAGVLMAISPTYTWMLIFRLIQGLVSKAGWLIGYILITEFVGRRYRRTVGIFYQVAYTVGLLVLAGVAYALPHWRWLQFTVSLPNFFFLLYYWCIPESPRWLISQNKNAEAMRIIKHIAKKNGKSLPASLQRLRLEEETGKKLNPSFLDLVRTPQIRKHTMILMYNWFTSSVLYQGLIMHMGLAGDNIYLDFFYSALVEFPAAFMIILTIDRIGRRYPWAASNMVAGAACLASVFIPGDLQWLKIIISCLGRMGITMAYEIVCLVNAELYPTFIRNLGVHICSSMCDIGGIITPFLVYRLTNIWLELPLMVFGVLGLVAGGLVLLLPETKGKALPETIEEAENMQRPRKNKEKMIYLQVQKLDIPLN

[3] = target: T3, Solute carrier family 22 member 3 (Homo sapiens, UniProt O75751); assay: Inhibition of human OCT3-mediated ASP+ uptake expressed in HEK293 cells after 3 mins by fluorescence assay; format: cell-based
T3 sequence (O75751 whole entry): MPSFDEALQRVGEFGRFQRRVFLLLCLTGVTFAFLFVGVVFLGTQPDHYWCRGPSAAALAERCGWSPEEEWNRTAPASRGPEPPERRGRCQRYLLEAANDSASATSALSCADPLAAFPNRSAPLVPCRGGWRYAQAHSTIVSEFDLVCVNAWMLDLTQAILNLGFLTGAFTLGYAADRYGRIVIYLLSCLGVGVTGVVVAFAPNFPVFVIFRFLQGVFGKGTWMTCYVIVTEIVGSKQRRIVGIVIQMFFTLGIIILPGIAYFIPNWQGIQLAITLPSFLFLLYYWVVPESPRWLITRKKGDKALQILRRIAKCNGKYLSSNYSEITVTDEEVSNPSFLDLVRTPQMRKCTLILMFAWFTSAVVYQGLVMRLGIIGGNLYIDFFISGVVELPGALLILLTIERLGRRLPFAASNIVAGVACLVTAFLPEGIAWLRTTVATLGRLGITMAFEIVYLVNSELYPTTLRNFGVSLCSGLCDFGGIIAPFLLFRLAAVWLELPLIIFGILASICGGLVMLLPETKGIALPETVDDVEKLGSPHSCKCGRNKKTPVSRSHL

[4] = target: T4, Multidrug and toxin extrusion protein 1 (Homo sapiens, UniProt Q96FL8); assay: (§1) Inhibition of human MATE1-mediated ASP+ uptake expressed in HEK293 cells at 20 uM after 1.5 mins by fluorescence assay; format: cell-based; settings: hek293, […], 20 µM
T4 sequence (Q96FL8 whole entry): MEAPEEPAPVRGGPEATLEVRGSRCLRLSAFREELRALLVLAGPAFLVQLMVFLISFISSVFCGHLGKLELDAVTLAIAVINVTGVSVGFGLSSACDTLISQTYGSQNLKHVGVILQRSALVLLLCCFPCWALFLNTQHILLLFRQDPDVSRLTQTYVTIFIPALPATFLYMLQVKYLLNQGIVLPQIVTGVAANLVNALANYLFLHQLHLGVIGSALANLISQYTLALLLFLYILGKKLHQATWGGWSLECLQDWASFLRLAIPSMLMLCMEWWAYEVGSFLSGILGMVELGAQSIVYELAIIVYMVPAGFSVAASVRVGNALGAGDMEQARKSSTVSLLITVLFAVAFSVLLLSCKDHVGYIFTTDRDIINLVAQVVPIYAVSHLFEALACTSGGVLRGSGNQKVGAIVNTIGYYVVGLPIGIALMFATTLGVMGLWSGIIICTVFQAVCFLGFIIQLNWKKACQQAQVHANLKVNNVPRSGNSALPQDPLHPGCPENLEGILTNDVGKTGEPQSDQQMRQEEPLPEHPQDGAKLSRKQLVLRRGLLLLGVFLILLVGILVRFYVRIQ

[5] = target: T5, Multidrug and toxin extrusion protein 2 (Homo sapiens, UniProt Q86VL8); assay: Inhibition of human MATE2K-mediated ASP+ uptake expressed in HEK293 cells after 1.5 mins by fluorescence assay; format: cell-based
T5 sequence (Q86VL8 whole entry): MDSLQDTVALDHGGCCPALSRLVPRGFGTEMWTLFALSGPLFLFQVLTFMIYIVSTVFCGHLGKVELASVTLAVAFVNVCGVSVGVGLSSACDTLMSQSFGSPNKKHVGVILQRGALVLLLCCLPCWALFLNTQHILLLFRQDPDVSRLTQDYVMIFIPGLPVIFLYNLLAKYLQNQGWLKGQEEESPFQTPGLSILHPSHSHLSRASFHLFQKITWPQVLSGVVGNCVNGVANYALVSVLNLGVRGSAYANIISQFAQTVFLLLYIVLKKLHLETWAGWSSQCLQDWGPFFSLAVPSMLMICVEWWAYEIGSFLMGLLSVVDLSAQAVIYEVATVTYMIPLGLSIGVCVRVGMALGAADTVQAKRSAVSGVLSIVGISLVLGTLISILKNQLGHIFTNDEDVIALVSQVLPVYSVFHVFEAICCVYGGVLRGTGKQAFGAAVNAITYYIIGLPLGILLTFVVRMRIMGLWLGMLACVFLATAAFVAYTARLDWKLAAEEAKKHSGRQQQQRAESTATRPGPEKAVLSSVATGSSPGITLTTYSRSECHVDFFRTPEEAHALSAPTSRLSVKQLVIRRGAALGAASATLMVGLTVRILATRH

[6] = target: T5, Multidrug and toxin extrusion protein 2; assay: Inhibition of human MATE2K-mediated ASP+ uptake expressed in HEK293 cells up to 500 uM after 1.5 mins by fluorescence assay; format: cell-based; settings: for INH: human, hek293, […]
[7] = target: T6, MATE1 (multidrug and toxin extrusion protein 1) (Homo sapiens, UniProt Q96FL8); assay: as §1; format: cell-based; settings: HEK293 cells expressing human MATE1, probe ASP+
T6 sequence (Q96FL8 whole entry): T4 sequence (Q96FL8 whole entry)

[8] = target: T4, Multidrug and toxin extrusion protein 1; assay: Inhibition of human MATE1-mediated ASP+ uptake expressed in HEK293 cells after 1.5 mins by fluorescence assay; format: cell-based
[9] = Cmax in iv dosed human; format: ADME, organism-based; parameters: route intravenous; settings: in vivo
[10] = target: T4, Multidrug and toxin extrusion protein 1; assay: Inhibition of human MATE1-mediated [14]-metformin uptake expressed in polarized MDCK2 cells after 5 mins by liquid scintillation counting analysis; format: cell-based, MDCK-II
[11] = target: T4, Multidrug and toxin extrusion protein 1; assay: Inhibition of human MATE1-mediated [14]-metformin uptake expressed in HEK293 cells after 1.5 mins by scintillation counting analysis; format: cell-based
[12] = Cmax in human at 40 mg, po after 7 days; format: ADME, organism-based; parameters: dose 40 mg, route oral; settings: in vivo

Row | IC50 [1] | IC50 [2] | IC50 [3] | SMILES | IC50 [5] | IC50 [8] | also measured
1 | 0.21 µM | 400 nM | 0.41 µM | [H]/N=C(\N/C(=N/[H])NCCCCCCNC(=N)NC(=N)Nc1ccc(Cl)cc1)Nc1ccc(Cl)cc1 [CHLORHEXIDINE] | 0.5 µM | 0.7 µM | INH [4]: 86%
2 | > 300 µM | 10300 nM | 146 µM | Cn1c(NCCN(CCO)CCCc2ccc([N+](=O)[O-])cc2)cc(=O)n(C)c1=O [NIFEKALANT] |  |  | Cmax [9]: 3.43 µM
3 | > 500 µM | 1500 nM | 137 µM | COc1ccnc(C[S+]([O-])c2nc3ccc(OC(F)F)cc3[nH]2)c1OC (stereo unspecified) [PANTOPRAZOLE] | > 500 µM | 43.2 µM | IC50 [10]: 2800 nM; IC50 [6]: 43.2 µM; IC50 [11]: 2800 nM; Cmax [12]: 5.45 µM
4 | 22.1 µM | 1200 nM | 9.5 µM | N=C(N)c1ccc(OCCCCCOc2ccc(C(=N)N)cc2)cc1 [PENTAMIDINE] |  |  | 

Further lines, the molecule ahead of its results:

Row | SMILES | IC50 [1] | IC50 [2] | IC50 [3] | IC50 [5] | IC50 [8] | also measured
5 | CC(C)(C)NC(=O)[C@@H]1CN(Cc2cccnc2)CCN1C[C@@H](O)C[C@@H](Cc1ccccc1)C(=O)N[C@H]1c2ccccc2C[C@H]1O | 208 µM | 142000 nM | > 500 µM |  |  | 
6 | Oc1c(Cl)cc(Cl)cc1Sc1cc(Cl)cc(Cl)c1O [BITHIONOL] | 3.9 µM | 1900 nM | 5.5 µM | 6.6 µM |  | INH [4]: 87%
7 | COc1ccccc1OCCNCC(O)COc1cccc2[nH]c3ccccc3c12 (stereo unspecified) [CARVEDILOL] |  | 7500 nM |  |  | 92.4 µM | INH [6]: Not Active; inhibition at […], 20 µM [7]: 21%
8 | NC(N)=Nc1nc(CSCCC(N)=NS(N)(=O)=O)cs1 [FAMOTIDINE] | > 300 µM | 36100 nM | 10.7 µM | 36.2 µM | 0.76 µM | 
9 | CCc1c2c(nc3ccc(OC(=O)N4CCC(N5CCCCC5)CC4)cc13)-c1cc3c(c(=O)n1C2)COC(=O)[C@]3(O)CC [IRINOTECAN] | 20.8 µM | 2700 nM | 74.6 µM |  |  | inhibition at […], 20 µM [7]: 49%
10 | O=C1c2c(O)ccc(O)c2C(=O)c2c(NCCNCCO)ccc(NCCNCCO)c21 [MITOXANTRONE] | 43.9 µM | 73300 nM | 60.5 µM |  |  | 
11 | COc1ccc2c(c1OC)C(=O)O[C@@H]2[C@H]1c2c(cc3c(c2OC)OCO3)CCN1C [NOSCAPINE] |  | 2600 nM |  |  |  | INH [6]: Not Active; inhibition at […], 20 µM [7]: 13.4%
12 | Cc1nccn1CC1CCc2c(c3ccccc3n2C)C1=O (stereo unspecified) [ONDANSETRON] | > 300 µM |  | 17.4 µM |  |  | 

From ChEMBL document CHEMBL2311273, “Discovery of potent, selective multidrug and toxin extrusion transporter 1 (MATE1, SLC47A1) inhibitors through prescription drug profiling and computational modeling” (J Med Chem, 2013)
